Tests used:
recombinant CHO cells [1] = assay: LDH activity in culture supernatant (degree of cell lysis) after sodium butyrate; format: cell-based; details: control cells, first two days after addition of 5 mM sodium butyrate
Source text: The integrity of protein product is influenced by the degree of cell lysis because some proteolytic enzymes and glycosidases released from the cellular membrane ruptured-dead cells influence the molecular integrity of the product (Goldman, et al., 1997, Cytotechnology, 23, 103-111; Hansen, et al., 1997, Cytotechnology, 24, 227-234; Teige, et al., 1994, J. Biotechnol., 34, 101-105). The amount of lysed cells can be determined by measuring the amount of lactate dehydrogenase (LDH) released into the culture supernatant (Cruz, et al., 2000, Biotechnol. Lett., 22, 677-682). Thus, to determine the degree of cell lysis, the LDH activity in culture supernatant was measured daily after treatment with 5 mM of sodium butyrate.

recombinant CHO cells [2] = format: cell-based
Procedure: The present inventors confirmed whether the expression of antisense RNA of caspase-3 could inhibit the NaBu-induced apoptosis. Particularly, control cells and B3 cells obtained in Example <1-1> were seeded at a concentration of 4×10^4 cells/ml in 6-well culture plates containing 5 ml of an alpha-minimum essential medium supplemented with 5% dialyzed fetal bovine serum and 0.32 μM of methotrexate. After three days of cultivation, the spent medium was replaced with fresh medium containing 0-5 mM of sodium butyrate. Cells were harvested periodically. Viable cells were distinguished from dead cells using the trypan blue dye exclusion method to determine cell viability. In addition, secreted humanized antibody concentration was measured by enzyme-linked immunosorbent assay (ELISA).

Compound: CCCC(=O)[O-].[Na+] [sodium butyrate]
- LDH activity in culture supernatant (recombinant CHO cells [1]): increased rapidly
- cytotoxic effect on the cell growth (recombinant CHO cells [2]; 0-5 mM sodium butyrate, control and B3 CHO cells): dose-dependent
- cellular apoptosis (recombinant CHO cells [2]; 5 mM sodium butyrate): induced
- viability of control cells (recombinant CHO cells [2]; three days after treatment with 5 mM sodium butyrate, control cells (null pcDNA3.1-zeo(+))): under 50%

Source: patent US6943022B2, “Inhibition of apoptosis by the expression of antisense RNA of caspase-3” (Korea Advanced Institute of Science and Technology, priority 2001, dated 2005)
